{"source": "patent US20090238808A1", "about": "“Process for the identification of novel enzyme interacting compounds” (priority 2005, published 2009)", "key": {"[1]": {"molecular_target": "T1, Glycogen Synthase Kinase 3 beta (Homo sapiens, UniProt P49841)", "T1 construct": "Aliqots of Jurkat lysate (10 mg protein) were incubated with different Bis VIII concentrations; endogenous in cells; host or cells: Jurkat clone E6-1 lysate", "T1 sequence (P49841 whole entry)": "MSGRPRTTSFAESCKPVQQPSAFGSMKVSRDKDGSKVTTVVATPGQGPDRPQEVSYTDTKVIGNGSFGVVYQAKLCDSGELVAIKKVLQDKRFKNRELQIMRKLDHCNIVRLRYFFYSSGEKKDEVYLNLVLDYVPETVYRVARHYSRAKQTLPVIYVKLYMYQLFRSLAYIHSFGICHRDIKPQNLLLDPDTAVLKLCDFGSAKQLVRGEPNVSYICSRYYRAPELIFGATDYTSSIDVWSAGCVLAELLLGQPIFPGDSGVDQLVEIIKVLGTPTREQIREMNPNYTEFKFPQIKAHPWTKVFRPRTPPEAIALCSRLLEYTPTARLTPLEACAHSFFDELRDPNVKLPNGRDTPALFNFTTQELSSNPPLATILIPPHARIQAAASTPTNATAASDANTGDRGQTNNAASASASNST", "assay": "In-lysate competition binding with kinobeads, Jurkat lysate, iTRAQ MS", "conditions": "for Relative Intensity, GSK3B: DMSO control = 1.0", "description": "(§1) This example illustrates competition binding in cell lysates (see particularly the third aspect of the invention). A test compound, Bisindolylmaleimide VIII (Bis VIII, a well known kinase inhibitor; Davies et al., 2000. Specificity and mechanism of action of some commonly used protein kinase inhibitors. Biochemical Journal 351 (Pt 1): 95-105) was added to a cell lysate thereby allowing the test compound to bind to the target proteins in the lysate. Then the lysate was contacted with the kinobeads affinity matrix to capture remaining free target proteins. The proteins bound to the kinobeads matrix were then eluted with detergent-containing buffer, separated on a SDS-polyacryamide gel and analyzed by immunodetection (Western blots) or mass spectrometry detection.\n(§2) For the quantitative detection of proteins by mass spectrometry proteins were eluted from the affinity matrix and subsequently separated by SDS-Polyacrylamide gel elecrophoresis. Suitable gel areas were cut out and subjected to in-gel proteolytic digestion with trypsin.\n(§3) Four tryptic digest samples (corresponding to three different Bis VIII concentrations in the lysate and one DMSO control) were labeled with ITRAQ reagents and the combined samples were analyzed in a single LC-MS/MS mass spectrometry analysis followed by peak quantification in the MS/MS spectrum (Ross et al., 2004. Multiplexed protein quantitation in Saccharomyces cerevisiae using amine-reactive isobaric tagging reagents. Mol. Cell. Proteomics 3(12): 1154-1169). […] Binding curves for individual kinases are shown (FIG. 5). The relative intensity 50 (RI50) values representing the affinity of kinase-compound pairs are similar to IC50 values reported by kinase enzyme assays (Davies et al., 2000. Specificity and mechanism of action of some commonly used protein kinase inhibitors. Biochemical Journal 351 (Pt 1): 95-105).\n(§4) Aliqots of Jurkat lysate (10 mg protein) were incubated with different Bis VIII concentrations for one hour at 4° C. (0.025 μM, 0.074 μM, 0.22 μM, 0.67 μM, 2.0 μM and 6.0 μM final concentration of Bis VIII). To this end Bis VIII solutions were prepared in 100% DMSO as solvent that corresponded to 200 fold desired final Bis VIII concentration (Bis VIII from Alexis Biochemicals cat. number ALX 270-056). Five μl of these solutions were added to 1 ml of lysate resulting in the indicated final concentrations. For a control experiment 5 μl of DMSO without Bis VIII were used.\n(§5) To each preincubated lysate sample 40 μl of kinobeads (see example 1) were added and incubated for one hour at 4° C. During the incubation the tubes were rotated on an end-over-end shaker (Roto Shake Genie, Scientific Industries Inc.). Beads were collected by centrifugation, transfered to Mobicol-columns (MoBiTech 10055) and washed with 10 ml 1×DP buffer containing 0.4% NP40 detergent, followed by a wash with 5 ml 1×DP buffer with 0.2% NP40. To elute the bound proteins, 100 μl 2×SDS sample buffer was added, the column was heated for 30 minutes at 50° C. and the eluate was transferred to a microfuge tube by centrifugation. Proteins were then separated by SDS-Polyacrylamide electrophoresis (SDS-PAGE). The composition and preparation of buffers is described in example 2.\n(§6) The peptide extracts of samples treated with different concentrations of the test compound (0.074 μM, 0.22 μM and 0.67 μM Bis VIII) and the solvent control (0.5% DMSO) were treated with different isomers of the isobaric tagging reagent (iTRAQ Reagents Multiplex Kit, part number 4352135, Applied Biosystems, Foster City, Calif., USA). The iTRAQ reagents are a set of multiplexed, amine-specific, stable isotope reagents that can label all peptides in up to four different biological samples enabling simultaneous identification and quantitation of peptides. The iTRAQ reagents were used according to instructions provided by the manufacturer. […]"}, "[2]": {"molecular_target": "protein kinase C beta (Homo sapiens, UniProt P05771)", "sequence (P05771 whole entry)": "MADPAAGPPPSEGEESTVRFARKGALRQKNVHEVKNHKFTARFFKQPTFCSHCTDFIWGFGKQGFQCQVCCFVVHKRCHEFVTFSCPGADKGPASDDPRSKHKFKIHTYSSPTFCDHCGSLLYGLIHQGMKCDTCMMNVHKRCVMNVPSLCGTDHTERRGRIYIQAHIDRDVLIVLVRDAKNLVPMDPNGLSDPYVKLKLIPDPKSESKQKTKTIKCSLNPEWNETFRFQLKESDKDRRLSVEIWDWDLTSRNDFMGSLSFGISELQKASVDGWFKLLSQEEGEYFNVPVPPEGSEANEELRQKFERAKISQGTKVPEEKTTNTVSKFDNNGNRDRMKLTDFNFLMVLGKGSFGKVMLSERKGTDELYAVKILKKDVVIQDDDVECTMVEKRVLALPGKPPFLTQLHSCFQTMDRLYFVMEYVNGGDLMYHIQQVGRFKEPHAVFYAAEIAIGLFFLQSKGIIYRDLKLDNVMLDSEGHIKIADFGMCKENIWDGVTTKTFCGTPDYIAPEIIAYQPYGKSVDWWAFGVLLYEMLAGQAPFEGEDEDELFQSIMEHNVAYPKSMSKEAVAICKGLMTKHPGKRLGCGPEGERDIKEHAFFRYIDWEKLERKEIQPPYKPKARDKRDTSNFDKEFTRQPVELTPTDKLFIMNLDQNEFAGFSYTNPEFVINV", "assay": "In-lysate competition binding with kinobeads, Jurkat lysate, iTRAQ MS", "conditions": "for Relative Intensity, PKCb (PRKCB1): DMSO control = 1.0", "description": "as §1, §2, §3, §4, §5, §6"}, "[3]": {"molecular_target": "T2, ITK (Homo sapiens, UniProt Q08881)", "T2 construct": "Aliqots of Jurkat lysate (10 mg protein) were incubated with different Bis VIII concentrations; endogenous in cells; host or cells: Jurkat clone E6-1 lysate", "T2 sequence (Q08881 whole entry)": "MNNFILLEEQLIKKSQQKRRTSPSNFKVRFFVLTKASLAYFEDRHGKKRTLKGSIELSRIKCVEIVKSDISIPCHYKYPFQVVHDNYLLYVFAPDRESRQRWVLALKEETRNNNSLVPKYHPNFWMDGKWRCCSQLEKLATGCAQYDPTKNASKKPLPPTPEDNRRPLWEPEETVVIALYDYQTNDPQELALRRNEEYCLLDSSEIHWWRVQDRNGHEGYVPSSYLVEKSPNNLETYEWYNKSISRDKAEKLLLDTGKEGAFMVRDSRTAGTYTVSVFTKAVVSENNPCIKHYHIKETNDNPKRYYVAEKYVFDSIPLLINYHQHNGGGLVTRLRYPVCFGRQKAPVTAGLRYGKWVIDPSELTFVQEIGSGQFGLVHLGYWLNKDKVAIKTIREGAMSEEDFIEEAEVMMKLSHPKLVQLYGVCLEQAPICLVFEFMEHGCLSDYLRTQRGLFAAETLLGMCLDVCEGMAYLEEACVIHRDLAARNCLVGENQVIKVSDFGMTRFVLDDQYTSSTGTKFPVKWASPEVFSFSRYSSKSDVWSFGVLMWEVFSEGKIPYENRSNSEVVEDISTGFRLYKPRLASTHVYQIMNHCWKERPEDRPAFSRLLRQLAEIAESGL", "assay": "In-lysate competition binding with kinobeads, Jurkat lysate, Western blot", "conditions": "Jurkat lysate preincubated with 0.025-6.0 μM compound", "description": "as §1\n(§7) For Western blot analysis proteins bound to the affinity matrix were eluted from the affinity matrix and subsequently separated by SDS-Polyacrylamide gel elecrophoresis and transferred to a blotting membrane. Individual kinases were detected with specific antibodies against GSK3alpha, GSK3beta and ITK (FIG. 4A). […] For GSK3beta the signal was quantified and plotted against the Bis VIII concentration added to the cell lysate (FIG. 4B).\nas §4\n(§8) To each preincubated lysate sample 40 μl of kinobeads (see example 1) were added and incubated for one hour at 4° C. During the incubation the tubes were rotated on an end-over-end shaker (Roto Shake Genie, Scientific Industries Inc.). […]"}, "[4]": {"molecular_target": "T3, GSK3alpha (Homo sapiens, UniProt P49840)", "T3 construct": "Aliqots of Jurkat lysate (10 mg protein) were incubated with different Bis VIII concentrations; endogenous in cells; host or cells: Jurkat clone E6-1 lysate", "T3 sequence (P49840 whole entry)": "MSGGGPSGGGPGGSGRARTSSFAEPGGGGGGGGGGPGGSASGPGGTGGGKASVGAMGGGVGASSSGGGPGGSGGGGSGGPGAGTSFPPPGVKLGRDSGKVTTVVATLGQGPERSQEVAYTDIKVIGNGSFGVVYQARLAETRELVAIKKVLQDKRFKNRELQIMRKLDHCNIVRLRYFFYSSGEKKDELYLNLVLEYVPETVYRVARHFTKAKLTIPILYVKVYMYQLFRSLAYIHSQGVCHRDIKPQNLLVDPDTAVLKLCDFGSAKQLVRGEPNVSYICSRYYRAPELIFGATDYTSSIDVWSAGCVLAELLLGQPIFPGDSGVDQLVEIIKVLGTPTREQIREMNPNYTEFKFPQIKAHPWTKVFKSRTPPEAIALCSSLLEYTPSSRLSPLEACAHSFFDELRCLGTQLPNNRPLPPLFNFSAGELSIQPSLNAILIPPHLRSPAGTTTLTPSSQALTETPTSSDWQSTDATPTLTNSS", "assay": "In-lysate competition binding with kinobeads, Jurkat lysate, Western blot", "conditions": "Jurkat lysate preincubated with 0.025-6.0 μM compound", "description": "as §1, §7, §4, §8"}, "[5]": {"molecular_target": "T4, GSK3beta (Homo sapiens, UniProt P49841)", "T4 construct": "Aliqots of Jurkat lysate (10 mg protein) were incubated with different Bis VIII concentrations; endogenous in cells; host or cells: Jurkat clone E6-1 lysate", "T4 sequence (P49841 whole entry)": "as the sequence (P49841 whole entry) above", "assay": "In-lysate competition binding with kinobeads, Jurkat lysate, Western blot", "conditions": "Jurkat lysate preincubated with 0.025-6.0 μM compound", "description": "as §1, §7, §4, §8"}}, "data": [{"smiles": "Cn1cc(C2=C(c3cn(CCCN)c4ccccc34)C(=O)NC2=O)c2ccccc21", "note": "[Bis VIII, Bisindolylmaleimide VIII]", "values": [{"measurement": "Relative Intensity, GSK3B", "setting": "[1]; 0.074 uM in lysate", "result": 0.54}, {"measurement": "Relative Intensity, GSK3B", "setting": "[1]; 0.67 uM in lysate", "result": 0.28}, {"measurement": "IC50", "setting": "[1]; Jurkat cell lysate, concentration at which relative intensity of the MS signal is 50% of DMSO control, read-out: RI50 (GSKb)", "result": 95, "unit": "nM"}, {"measurement": "Relative Intensity, PKCb (PRKCB1)", "setting": "[2]; 0.074 uM in lysate", "result": 0.29}, {"measurement": "Relative Intensity, PKCb (PRKCB1)", "setting": "[2]; 0.67 uM in lysate", "result": 0.17}, {"measurement": "IC50", "setting": "[2]; Jurkat cell lysate, concentration at which relative intensity of the MS signal is 50% of DMSO control, read-out: RI50 (PKCb)", "result": 21.5, "unit": "nM"}, {"measurement": "binding of ITK to kinobeads, Western blot", "setting": "[3]", "result": "not binding of ITK"}, {"measurement": "binding of GSK3alpha to kinobeads, Western blot", "setting": "[4]", "result": "prevented binding"}, {"measurement": "binding of GSK3beta to kinobeads, Western blot", "setting": "[5]", "result": "prevented binding"}]}]}
